{
  "source": "paper PMC12186298",
  "about": "“Phase 1 clinical trial of eneboparatide, a novel PTH receptor 1 agonist” (Endocrine Connections, 2025)",
  "key": {"patients with cHP": {"system": "patients with cHP", "set-up": "method as in PMID 38449442", "settings": "3 months; cited from earlier work"}, "healthy subjects": {"system": "healthy subjects", "test": "Safety and tolerability, adverse events, Part A SAD", "type": "in vivo, human", "protocol": "Seven sequential cohorts were included in Part A. The first cohort was single-blind and included four subjects, of which three subjects were randomized to receive 5 μg eneboparatide and one subject was randomized to receive placebo. […] Subjects in Part A were admitted to the phase 1 study centre on day 1 and received the study drug at the clinical site on day 1 as a single, subcutaneous abdominal injection in the morning. They were discharged on day 4 and were asked to return for a follow-up (FU) visit on day 5–8."}, "animal models of HP": {"system": "animal models of HP", "settings": "cited from earlier work"}},
  "note": "Peptide text beside a SMILES is read from it.",
  "data": [
    {"smiles": "CC[C@H](C)[C@H](NC(=O)[C@H](CCC(=O)O)NC(=O)[C@H](C)NC(=O)[C@@H](NC(=O)[C@H](Cc1c[nH]cn1)NC(=O)[C@@H](NC(=O)[C@H](CCC(=O)O)NC(=O)[C@H](C)NC(=O)[C@@H](NC(=O)[C@H](CC(C)C)NC(=O)[C@H](CCCCN)NC(=O)[C@H](Cc1c[nH]cn1)NC(=O)[C@H](CC(C)C)NC(=O)[C@H](Cc1ccccc1)NC(=O)[C@H](C)NC(=O)[C@H](CCCNC(=N)N)NC(=O)[C@H](CCCNC(=N)N)NC(=O)[C@H](CCCNC(=N)N)NC(=O)[C@H](C)NC(=O)[C@H](CC(=O)O)NC(=O)[C@H](CCC(N)=O)NC(=O)[C@@H](NC(=O)[C@H](Cc1c[nH]c2ccccc12)NC(=O)[C@H](CCCCN)NC(=O)[C@H](C)NC(=O)[C@H](CCCNC(=N)N)NC(=O)[C@H](CCC(N)=O)NC(=O)[C@H](Cc1c[nH]cn1)NC(=O)[C@H](CCSC)NC(=O)[C@H](CC(C)C)NC(=O)[C@H](CCC(N)=O)NC(=O)[C@@H](NC(=O)[C@H](CCC(=O)O)NC(=O)[C@H](C)NC(=O)[C@@H](NC(=O)[C@H](C)N)C(C)C)[C@@H](C)CC)[C@@H](C)CC)[C@@H](C)CC)[C@@H](C)CC)[C@@H](C)O)C(=O)O", "note": "[eneboparatide] (H-AVAEIQLMHQRAKWIQDARRRAFLHKLIAEIHTAEI-OH; N-terminus and C-terminus assumed)", "values": [
      {"measurement": "tolerability and independence from conventional therapy", "setting": "patients with cHP", "value": "well-tolerated and allowed independence from conventional therapy"},
      {"measurement": "vomiting, subjects", "setting": "healthy subjects", "value": "none"},
      {"measurement": "Catheter site haematoma, subjects with TEAE", "setting": "healthy subjects; single sc 5 μg, n = 3", "value": 0},
      {"measurement": "Decreased appetite, subjects with TEAE", "setting": "healthy subjects; single sc 5 μg, n = 3", "value": 0},
      {"measurement": "Fatigue, subjects with TEAE", "setting": "healthy subjects; single sc 5 μg, n = 3", "value": 0},
      {"measurement": "Headache, subjects with TEAE", "setting": "healthy subjects; single sc 5 μg, n = 3", "value": 1},
      {"measurement": "Injection site erythema, subjects with TEAE", "setting": "healthy subjects; single sc 5 μg, n = 3", "value": 0},
      {"measurement": "Injection site pain, subjects with TEAE", "setting": "healthy subjects; single sc 5 μg, n = 3", "value": 0},
      {"measurement": "Nausea, subjects with TEAE", "setting": "healthy subjects; single sc 5 μg, n = 3", "value": 0},
      {"measurement": "Somnolence, subjects with TEAE", "setting": "healthy subjects; single sc 5 μg, n = 3", "value": 0},
      {"measurement": "Catheter site haematoma, subjects with TEAE", "setting": "healthy subjects; single sc 10 μg, n = 6", "value": 1},
      {"measurement": "Decreased appetite, subjects with TEAE", "setting": "healthy subjects; single sc 10 μg, n = 6", "value": 0},
      {"measurement": "Fatigue, subjects with TEAE", "setting": "healthy subjects; single sc 10 μg, n = 6", "value": 1},
      {"measurement": "Headache, subjects with TEAE", "setting": "healthy subjects; single sc 10 μg, n = 6", "value": 1},
      {"measurement": "Injection site erythema, subjects with TEAE", "setting": "healthy subjects; single sc 10 μg, n = 6", "value": 0},
      {"measurement": "Injection site pain, subjects with TEAE", "setting": "healthy subjects; single sc 10 μg, n = 6", "value": 0},
      {"measurement": "Nausea, subjects with TEAE", "setting": "healthy subjects; single sc 10 μg, n = 6", "value": 0},
      {"measurement": "Somnolence, subjects with TEAE", "setting": "healthy subjects; single sc 10 μg, n = 6", "value": 0},
      {"measurement": "Catheter site haematoma, subjects with TEAE", "setting": "healthy subjects; single sc 20 μg, n = 6", "value": 0},
      {"measurement": "Decreased appetite, subjects with TEAE", "setting": "healthy subjects; single sc 20 μg, n = 6", "value": 1},
      {"measurement": "Fatigue, subjects with TEAE", "setting": "healthy subjects; single sc 20 μg, n = 6", "value": 1},
      {"measurement": "Headache, subjects with TEAE", "setting": "healthy subjects; single sc 20 μg, n = 6", "value": 1},
      {"measurement": "Injection site erythema, subjects with TEAE", "setting": "healthy subjects; single sc 20 μg, n = 6", "value": 0},
      {"measurement": "Injection site pain, subjects with TEAE", "setting": "healthy subjects; single sc 20 μg, n = 6", "value": 1},
      {"measurement": "Nausea, subjects with TEAE", "setting": "healthy subjects; single sc 20 μg, n = 6", "value": 0},
      {"measurement": "Somnolence, subjects with TEAE", "setting": "healthy subjects; single sc 20 μg, n = 6", "value": 0},
      {"measurement": "Catheter site haematoma, subjects with TEAE", "setting": "healthy subjects; single sc 40 μg, n = 6", "value": 0},
      {"measurement": "Decreased appetite, subjects with TEAE", "setting": "healthy subjects; single sc 40 μg, n = 6", "value": 0},
      {"measurement": "Fatigue, subjects with TEAE", "setting": "healthy subjects; single sc 40 μg, n = 6", "value": 0},
      {"measurement": "Headache, subjects with TEAE", "setting": "healthy subjects; single sc 40 μg, n = 6", "value": 0},
      {"measurement": "Injection site erythema, subjects with TEAE", "setting": "healthy subjects; single sc 40 μg, n = 6", "value": 0},
      {"measurement": "Injection site pain, subjects with TEAE", "setting": "healthy subjects; single sc 40 μg, n = 6", "value": 0},
      {"measurement": "Nausea, subjects with TEAE", "setting": "healthy subjects; single sc 40 μg, n = 6", "value": 0},
      {"measurement": "Somnolence, subjects with TEAE", "setting": "healthy subjects; single sc 40 μg, n = 6", "value": 0},
      {"measurement": "Catheter site haematoma, subjects with TEAE", "setting": "healthy subjects; single sc 60 μg, n = 6", "value": 0},
      {"measurement": "Decreased appetite, subjects with TEAE", "setting": "healthy subjects; single sc 60 μg, n = 6", "value": 0},
      {"measurement": "Fatigue, subjects with TEAE", "setting": "healthy subjects; single sc 60 μg, n = 6", "value": 1},
      {"measurement": "Headache, subjects with TEAE", "setting": "healthy subjects; single sc 60 μg, n = 6", "value": 0},
      {"measurement": "Injection site erythema, subjects with TEAE", "setting": "healthy subjects; single sc 60 μg, n = 6", "value": 0},
      {"measurement": "Injection site pain, subjects with TEAE", "setting": "healthy subjects; single sc 60 μg, n = 6", "value": 0},
      {"measurement": "Nausea, subjects with TEAE", "setting": "healthy subjects; single sc 60 μg, n = 6", "value": 1},
      {"measurement": "Somnolence, subjects with TEAE", "setting": "healthy subjects; single sc 60 μg, n = 6", "value": 0},
      {"measurement": "Catheter site haematoma, subjects with TEAE", "setting": "healthy subjects; single sc 90 μg, n = 6", "value": 1},
      {"measurement": "Decreased appetite, subjects with TEAE", "setting": "healthy subjects; single sc 90 μg, n = 6", "value": 2},
      {"measurement": "Fatigue, subjects with TEAE", "setting": "healthy subjects; single sc 90 μg, n = 6", "value": 0},
      {"measurement": "Headache, subjects with TEAE", "setting": "healthy subjects; single sc 90 μg, n = 6", "value": 2},
      {"measurement": "Injection site erythema, subjects with TEAE", "setting": "healthy subjects; single sc 90 μg, n = 6", "value": 2},
      {"measurement": "Injection site pain, subjects with TEAE", "setting": "healthy subjects; single sc 90 μg, n = 6", "value": 2},
      {"measurement": "Nausea, subjects with TEAE", "setting": "healthy subjects; single sc 90 μg, n = 6", "value": 3},
      {"measurement": "Somnolence, subjects with TEAE", "setting": "healthy subjects; single sc 90 μg, n = 6", "value": 1},
      {"measurement": "Catheter site haematoma, subjects with TEAE", "setting": "healthy subjects; single sc 120 μg, n = 6", "value": 1},
      {"measurement": "Decreased appetite, subjects with TEAE", "setting": "healthy subjects; single sc 120 μg, n = 6", "value": 3},
      {"measurement": "Fatigue, subjects with TEAE", "setting": "healthy subjects; single sc 120 μg, n = 6", "value": 0},
      {"measurement": "Headache, subjects with TEAE", "setting": "healthy subjects; single sc 120 μg, n = 6", "value": 3},
      {"measurement": "Injection site erythema, subjects with TEAE", "setting": "healthy subjects; single sc 120 μg, n = 6", "value": 0},
      {"measurement": "Injection site pain, subjects with TEAE", "setting": "healthy subjects; single sc 120 μg, n = 6", "value": 0},
      {"measurement": "Nausea, subjects with TEAE", "setting": "healthy subjects; single sc 120 μg, n = 6", "value": 4},
      {"measurement": "Somnolence, subjects with TEAE", "setting": "healthy subjects; single sc 120 μg, n = 6", "value": 4},
      {"measurement": "Catheter site haematoma, subjects with TEAE", "setting": "healthy subjects; total eneboparatide, n = 39", "value": "3 (7.7) n (%)"},
      {"measurement": "Decreased appetite, subjects with TEAE", "setting": "healthy subjects; total eneboparatide, n = 39", "value": "6 (15.4) n (%)"},
      {"measurement": "Fatigue, subjects with TEAE", "setting": "healthy subjects; total eneboparatide, n = 39", "value": "3 (7.7) n (%)"},
      {"measurement": "Headache, subjects with TEAE", "setting": "healthy subjects; total eneboparatide, n = 39", "value": "8 (20.5) n (%)"},
      {"measurement": "Injection site erythema, subjects with TEAE", "setting": "healthy subjects; total eneboparatide, n = 39", "value": "2 (5.1) n (%)"},
      {"measurement": "Injection site pain, subjects with TEAE", "setting": "healthy subjects; total eneboparatide, n = 39", "value": "3 (7.7) n (%)"},
      {"measurement": "Nausea, subjects with TEAE", "setting": "healthy subjects; total eneboparatide, n = 39", "value": "8 (20.5) n (%)"},
      {"measurement": "Somnolence, subjects with TEAE", "setting": "healthy subjects; total eneboparatide, n = 39", "value": "5 (12.8) n (%)"},
      {"measurement": "nausea, subjects", "setting": "healthy subjects; transient, at 60, 90 and 120 μg", "value": "eight"},
      {"measurement": "serum calcium, urinary calcium excretion and bone resorption biomarkers", "setting": "animal models of HP", "value": "robust and sustained increases in serum calcium without increasing urinary calcium excretion or bone resorption biomarkers"}
    ]}
  ]
}
